Measured values published in patent US11458213B2, “Prostate-specific membrane antigen targeted high-affinity agents for endoradiotherapy of prostate cancer” (THE JOHNS HOPKINS UNIVERSITY, priority 2016, dated 2022).

Key:
PSMA+ PC3 PIP cells [1] = test: Cell binding, uptake and internalization in PSMA+ PC3 PIP cells; format: cell-based; conditions: for Cell uptake PSMA + PC3 PIP / Cell surface / Internalization (cell lysate): 4 h incubation, n = 3; for uptake in PSMA+ PC3 cells (in words): compared to ^177Lu-3
[2] = test system: PSMA-negative PC3 flu cells; test: Cell uptake in PSMA-negative PC3 flu cells; format: cell-based; conditions: 4 h incubation, n = 3
PSMA+ PC3 PIP tumor [3] = test: Treatment study (SPECT imaging and therapeutic effect) in tumor-bearing mice; format: in vivo
Experimental: A single dose of 3 mCi was injected via tail-vain injection in mice (n=10) bearing PSMA+ PC3 PIP tumor (size 3-5 mm). Saline was injected to another group of mice (n=10) for control study. Mice were monitored for body weight tumor size measure for two times per week. The control group of mice was euthanized after 4-8 weeks as the size of tumors over were >12 mm.

PSMA+ PC3 PIP tumor [4] = test: In vivo tissue biodistribution; conditions: for tissue biodistribution PC-3 Flu: PC-3 Flu tumor; for tissue biodistribution PC-3 PIP: PC-3 PIP tumor
PSMA+ PC3 PIP cells [5] = test: Clonogenic assay in PSMA+ PC3 PIP cells; format: cell-based; conditions: 10 μCi dose
PSMA-PC3 flu cells = test: Clonogenic assay in PSMA- PC3 flu cells; format: cell-based; conditions: 10 μCi dose
LogP octanol/water = format: physicochemical
[6] = molecular target: prostate-specific membrane antigen (PSMA) (Homo sapiens, UniProt Q04609); test: Binding affinities of the representative agents (PSMA)
Chain of prostate-specific membrane antigen (PSMA) (Q04609 whole entry): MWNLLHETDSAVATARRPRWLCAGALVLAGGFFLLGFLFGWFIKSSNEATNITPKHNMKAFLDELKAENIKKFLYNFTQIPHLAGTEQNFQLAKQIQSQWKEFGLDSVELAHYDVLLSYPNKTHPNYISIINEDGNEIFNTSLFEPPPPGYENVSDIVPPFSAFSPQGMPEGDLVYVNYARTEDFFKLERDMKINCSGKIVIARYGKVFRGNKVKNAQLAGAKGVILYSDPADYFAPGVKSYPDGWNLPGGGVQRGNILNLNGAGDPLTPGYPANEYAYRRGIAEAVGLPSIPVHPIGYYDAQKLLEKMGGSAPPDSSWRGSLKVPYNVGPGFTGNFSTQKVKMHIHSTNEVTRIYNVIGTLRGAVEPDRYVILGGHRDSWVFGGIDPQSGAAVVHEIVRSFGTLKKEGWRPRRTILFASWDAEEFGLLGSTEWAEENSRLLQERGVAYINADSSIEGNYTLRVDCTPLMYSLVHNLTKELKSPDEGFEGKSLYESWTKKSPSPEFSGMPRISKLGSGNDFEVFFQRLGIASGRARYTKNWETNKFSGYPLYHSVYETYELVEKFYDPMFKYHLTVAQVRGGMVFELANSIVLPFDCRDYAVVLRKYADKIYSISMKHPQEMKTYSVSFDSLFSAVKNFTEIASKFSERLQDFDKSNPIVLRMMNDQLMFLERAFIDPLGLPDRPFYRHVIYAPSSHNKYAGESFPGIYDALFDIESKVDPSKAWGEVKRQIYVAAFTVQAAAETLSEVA

SMILES: O=C([O-])CN1CCN(CC(=O)[O-])CCN(CC(=O)NCCCCC(=O)N(CCCC[C@H](NC(=O)N[C@@H](CCC(=O)O)C(=O)O)C(=O)O)Cc2ccc(Br)cc2)CCN(CC(=O)[O-])CC1.[177Lu+3] [^177Lu-2]
- Cell uptake PSMA + PC3 PIP (PSMA+ PC3 PIP cells [1]): 40.6 percent incubated dose per one million cells
- uptake in PSMA+ PC3 cells (in words) (PSMA+ PC3 PIP cells [1]): higher uptake in PSMA+ PC3 cells compared to ^177Lu-3
- Cell uptake PSMA − PC3 flu [2]: 0.12 percent incubated dose per one million cells

SMILES: O=C([O-])CN1CCN(CC(=O)[O-])CCN(CC(=O)O)C(Cc2ccc(NC(=S)NCCCCC(=O)N(CCCC[C@H](NC(=O)N[C@@H](CCC(=O)O)C(=O)O)C(=O)O)Cc3ccc(Br)cc3)cc2)CN(CC(=O)[O-])CC1.[177Lu+3] (stereo partly drawn) [^177Lu-1]
- remission of PSMA+ PC3 tumor bearing mice (PSMA+ PC3 PIP tumor [3]; mouse, in vivo): about 50%
- body weight during treatment (in words) (PSMA+ PC3 PIP tumor [3]; single dose of 3 mCi): regained after 2 weeks
- survival of mice in complete remission (PSMA+ PC3 PIP tumor [3]; single dose of 3 mCi): more than five months
- therapeutic efficacy compared to the control group using saline (in words) (PSMA+ PC3 PIP tumor [3]; single dose of 3 mCi): decrease in tumor volume
- mice showing complete eradication of tumors (PSMA+ PC3 PIP tumor [3]; single dose of 3 mCi via tail vein, n=10): 50%
- number of mice with complete remission of the disease (PSMA+ PC3 PIP tumor [3]; single dose of 3 mCi, n=10): Five
- tissue biodistribution Bladder (PSMA+ PC3 PIP tumor [4]; 2 h): 3.39 ± 2.78 percent injected dose per gram
- tissue biodistribution Bladder (PSMA+ PC3 PIP tumor [4]; 24 h): 0.31 ± 0.13 percent injected dose per gram
- tissue biodistribution Bladder (PSMA+ PC3 PIP tumor [4]; 48 h): 0.12 ± 0.07 percent injected dose per gram
- tissue biodistribution Bladder (PSMA+ PC3 PIP tumor [4]; 72 h): 0.06 ± 0.03 percent injected dose per gram
- tissue biodistribution Blood (PSMA+ PC3 PIP tumor [4]; 2 h): 0.68 ± 0.25 percent injected dose per gram
- tissue biodistribution Blood (PSMA+ PC3 PIP tumor [4]; 24 h): 0.01 ± 0.01 percent injected dose per gram
- tissue biodistribution Blood (PSMA+ PC3 PIP tumor [4]; 48 h): 0.00 ± 0.01 percent injected dose per gram
- tissue biodistribution Blood (PSMA+ PC3 PIP tumor [4]; 72 h): 0.00 ± 0.04 percent injected dose per gram
- tissue biodistribution Fat (PSMA+ PC3 PIP tumor [4]; 2 h): 0.35 ± 0.10 percent injected dose per gram
- tissue biodistribution Fat (PSMA+ PC3 PIP tumor [4]; 24 h): 0.08 ± 0.15 percent injected dose per gram
- tissue biodistribution Fat (PSMA+ PC3 PIP tumor [4]; 48 h): 0.01 ± 0.01 percent injected dose per gram
- tissue biodistribution Fat (PSMA+ PC3 PIP tumor [4]; 72 h): 0.06 ± 0.07 percent injected dose per gram
- tissue biodistribution Heart (PSMA+ PC3 PIP tumor [4]; 2 h): 0.28 ± 0.08 percent injected dose per gram
- tissue biodistribution Heart (PSMA+ PC3 PIP tumor [4]; 24 h): 0.02 ± 0.05 percent injected dose per gram
- tissue biodistribution Heart (PSMA+ PC3 PIP tumor [4]; 48 h): 0.01 ± 0.00 percent injected dose per gram
- tissue biodistribution Heart (PSMA+ PC3 PIP tumor [4]; 72 h): 0.01 ± 0.00 percent injected dose per gram
- tissue biodistribution Kidney (PSMA+ PC3 PIP tumor [4]; 2 h): 87.10 ± 25.99 percent injected dose per gram
- tissue biodistribution Kidney (PSMA+ PC3 PIP tumor [4]; 24 h): 1.65 ± 0.30 percent injected dose per gram
- tissue biodistribution Kidney (PSMA+ PC3 PIP tumor [4]; 48 h): 1.02 ± 0.58 percent injected dose per gram
- tissue biodistribution Kidney (PSMA+ PC3 PIP tumor [4]; 72 h): 0.62 ± 0.04 percent injected dose per gram
- tissue biodistribution Liver (PSMA+ PC3 PIP tumor [4]; 2 h): 0.39 ± 0.13 percent injected dose per gram
- tissue biodistribution Liver (PSMA+ PC3 PIP tumor [4]; 24 h): 0.11 ± 0.01 percent injected dose per gram
- tissue biodistribution Liver (PSMA+ PC3 PIP tumor [4]; 48 h): 0.09 ± 0.02 percent injected dose per gram
- tissue biodistribution Liver (PSMA+ PC3 PIP tumor [4]; 72 h): 0.07 ± 0.00 percent injected dose per gram
- tissue biodistribution Lung (PSMA+ PC3 PIP tumor [4]; 2 h): 1.12 ± 0.33 percent injected dose per gram
- tissue biodistribution Lung (PSMA+ PC3 PIP tumor [4]; 24 h): 0.06 ± 0.01 percent injected dose per gram
- tissue biodistribution Lung (PSMA+ PC3 PIP tumor [4]; 48 h): 0.04 ± 0.01 percent injected dose per gram
- tissue biodistribution Lung (PSMA+ PC3 PIP tumor [4]; 72 h): 0.04 ± 0.02 percent injected dose per gram
- tissue biodistribution Muscle (PSMA+ PC3 PIP tumor [4]; 2 h): 0.68 ± 0.98 percent injected dose per gram
- tissue biodistribution Muscle (PSMA+ PC3 PIP tumor [4]; 24 h): 0.01 ± 0.00 percent injected dose per gram
- tissue biodistribution Muscle (PSMA+ PC3 PIP tumor [4]; 48 h): 0.00 ± 0.00 percent injected dose per gram
- tissue biodistribution Muscle (PSMA+ PC3 PIP tumor [4]; 72 h): 0.02 ± 0.02 percent injected dose per gram
- tissue biodistribution PC-3 Flu (PSMA+ PC3 PIP tumor [4]; 2 h): 0.39 ± 0.03 percent injected dose per gram
- tissue biodistribution PC-3 Flu (PSMA+ PC3 PIP tumor [4]; 24 h): 0.10 ± 0.02 percent injected dose per gram
- tissue biodistribution PC-3 Flu (PSMA+ PC3 PIP tumor [4]; 48 h): 0.05 ± 0.01 percent injected dose per gram
- tissue biodistribution PC-3 Flu (PSMA+ PC3 PIP tumor [4]; 72 h): 0.06 ± 0.01 percent injected dose per gram
- tissue biodistribution PC-3 PIP (PSMA+ PC3 PIP tumor [4]; 2 h): 55.04 ± 7.23 percent injected dose per gram
- tissue biodistribution PC-3 PIP (PSMA+ PC3 PIP tumor [4]; 24 h): 40.61 ± 7.00 percent injected dose per gram
- tissue biodistribution PC-3 PIP (PSMA+ PC3 PIP tumor [4]; 48 h): 27.00 ± 7.03 percent injected dose per gram
- tissue biodistribution PC-3 PIP (PSMA+ PC3 PIP tumor [4]; 72 h): 24.90 ± 2.27 percent injected dose per gram
- tissue biodistribution Pancreas (PSMA+ PC3 PIP tumor [4]; 2 h): 0.28 ± 0.09 percent injected dose per gram
- tissue biodistribution Pancreas (PSMA+ PC3 PIP tumor [4]; 24 h): 0.02 ± 0.00 percent injected dose per gram
- tissue biodistribution Pancreas (PSMA+ PC3 PIP tumor [4]; 48 h): 0.01 ± 0.01 percent injected dose per gram
- tissue biodistribution Pancreas (PSMA+ PC3 PIP tumor [4]; 72 h): 0.01 ± 0.00 percent injected dose per gram
- tissue biodistribution Salivary gland (Sal. Gl) (PSMA+ PC3 PIP tumor [4]; 2 h): 1.09 ± 0.08 percent injected dose per gram
- tissue biodistribution Salivary gland (Sal. Gl) (PSMA+ PC3 PIP tumor [4]; 24 h): 0.09 ± 0.02 percent injected dose per gram
- tissue biodistribution Salivary gland (Sal. Gl) (PSMA+ PC3 PIP tumor [4]; 48 h): 0.05 ± 0.03 percent injected dose per gram
- tissue biodistribution Salivary gland (Sal. Gl) (PSMA+ PC3 PIP tumor [4]; 72 h): 0.05 ± 0.02 percent injected dose per gram
- tissue biodistribution Sm. Int. (PSMA+ PC3 PIP tumor [4]; 2 h): 0.51 ± 0.32 percent injected dose per gram
- tissue biodistribution Sm. Int. (PSMA+ PC3 PIP tumor [4]; 24 h): 0.03 ± 0.01 percent injected dose per gram
- tissue biodistribution Sm. Int. (PSMA+ PC3 PIP tumor [4]; 48 h): 0.02 ± 0.00 percent injected dose per gram
- tissue biodistribution Sm. Int. (PSMA+ PC3 PIP tumor [4]; 72 h): 0.02 ± 0.01 percent injected dose per gram
- tissue biodistribution Spleen (PSMA+ PC3 PIP tumor [4]; 2 h): 3.76 ± 0.70 percent injected dose per gram
- tissue biodistribution Spleen (PSMA+ PC3 PIP tumor [4]; 24 h): 0.15 ± 0.05 percent injected dose per gram
- tissue biodistribution Spleen (PSMA+ PC3 PIP tumor [4]; 48 h): 0.08 ± 0.03 percent injected dose per gram
- tissue biodistribution Spleen (PSMA+ PC3 PIP tumor [4]; 72 h): 0.08 ± 0.02 percent injected dose per gram
- tissue biodistribution Stomach (PSMA+ PC3 PIP tumor [4]; 2 h): 0.87 ± 0.63 percent injected dose per gram
- tissue biodistribution Stomach (PSMA+ PC3 PIP tumor [4]; 24 h): 0.04 ± 0.01 percent injected dose per gram
- tissue biodistribution Stomach (PSMA+ PC3 PIP tumor [4]; 48 h): 0.05 ± 0.04 percent injected dose per gram
- tissue biodistribution Stomach (PSMA+ PC3 PIP tumor [4]; 72 h): 0.04 ± 0.00 percent injected dose per gram
- uptake in PSMA+ PC3 PIP tumor (in words) (PSMA+ PC3 PIP tumor [4]; mouse, in vivo): higher uptake and retention in PSMA+ PC3 PIP tumor uptake than ^177Lu-2
- internalized activity compared to ^177Lu-3 (PSMA+ PC3 PIP cells [1]): ~2 fold
- Cell surface (PSMA+ PC3 PIP cells [1]): 27.68 percent incubated dose per one million cells
- Cell uptake PSMA + PC3 PIP (PSMA+ PC3 PIP cells [1]): 42.60 percent incubated dose per one million cells
- Internalization (cell lysate) (PSMA+ PC3 PIP cells [1]): 15.88 percent incubated dose per one million cells
- uptake in PSMA+ PC3 cells (in words) (PSMA+ PC3 PIP cells [1]): higher uptake in PSMA+ PC3 cells compared to ^177Lu-3
- cell killing efficacy (PSMA+ PC3 PIP cells [5]): about 100%
- Cell uptake PSMA − PC3 flu [2]: 0.09 percent incubated dose per one million cells
- toxicity for PSMA-PC3 flu cells (in words) (PSMA-PC3 flu cells): no significant toxicity

SMILES: O=C(O)CC[C@H](NC(=O)N[C@@H](CCCCN(Cc1ccc(Br)cc1)C(=O)CCCCNC(=O)CN1CCN(CC(=O)O)CCN(CC(=O)O)CCN(CC(=O)O)CC1)C(=O)O)C(=O)O [Compound 2]
- LogPoct/water (LogP octanol/water): −3.53
- IC50 [6]: 0.64 nM
- Ki [6]: 1.28 nM
- binding affinity for PSMA (in words) [6]: higher binding affinity compared to 3

SMILES: O=C(O)CC[C@H](NC(=O)N[C@@H](CCCCNC(=O)CCCCNC(=S)Nc1ccc(CC2CN(CC(=O)O)CCN(CC(=O)O)CCN(CC(=O)O)CCN2CC(=O)O)cc1)C(=O)O)C(=O)O (stereo partly drawn) [Compound 3]
- LogPoct/water (LogP octanol/water): −3.2
- IC50 [6]: 2.16 nM
- Ki [6]: 0.43 nM

SMILES: O=C([O-])CN1CCN(CC(=O)[O-])CCN(CC(=O)O)C(Cc2ccc(NC(=S)NCCCCC(=O)NCCCC[C@H](NC(=O)N[C@@H](CCC(=O)O)C(=O)O)C(=O)O)cc2)CN(CC(=O)[O-])CC1.[177Lu+3] (stereo partly drawn) [^177Lu-3]
- Cell surface (PSMA+ PC3 PIP cells [1]): 12.50 percent incubated dose per one million cells
- Cell uptake PSMA + PC3 PIP (PSMA+ PC3 PIP cells [1]): 24.50 percent incubated dose per one million cells
- Internalization (cell lysate) (PSMA+ PC3 PIP cells [1]): 8.75 percent incubated dose per one million cells
- Cell uptake PSMA − PC3 flu [2]: 0.05 percent incubated dose per one million cells

SMILES: O=C(O)CC[C@H](NC(=O)N[C@@H](CCCCN(Cc1ccc(Br)cc1)C(=O)CCCCNC(=S)Nc1ccc(CC2CN(CC(=O)O)CCN(CC(=O)O)CCN(CC(=O)O)CCN2CC(=O)O)cc1)C(=O)O)C(=O)O (stereo partly drawn) [Compound 1]
- LogPoct/water (LogP octanol/water): −3.0
- IC50 [6]: 0.57 nM
- Ki [6]: 1.15 nM
- binding affinity for PSMA (in words) [6]: higher binding affinity compared to 3
